Results from patent US8247211B2, “Glycopeptide antibiotics” (American Cyanamid Company, priority 2001, dated 2012).

Legend:
Experiment in all cases: In vitro antibacterial evaluation: minimum inhibitory concentration (MIC), broth dilution method
Format in all cases: cell-based
Staphylococcus sp. = details: for MIC Staphylococcus haemolyticus (GC 4546): strain GC 4546; for MIC Coagulase Negative Staphylococcus (GC 4547): strain GC 4547; for MIC Coagulase Negative Staphylococcus (GC 4548): strain GC 4548; for MIC Coagulase Negative Staphylococcus (GC 4549): strain GC 4549; for MIC Coagulase Negative Staphylococcus (GC 4551): strain GC 4551; for MIC Coagulase Negative Staphylococcus (ID-3941): strain ID-3941
Outline: (§1)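 MIC by broth dilution in Mueller-Hinton II medium following NCCLS M7-A2. Inoculum was 5×10^5 CFU/mL and antibiotic was tested over 64-0.06 μg/mL. Gram-positive panel included clinical isolates resistant to methicillin, penicillin and/or vancomycin.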

Streptococcus sp. = tested on: Streptococcus sp.
Outline: as §1

Escherichia coli = tested on: Escherichia coli
Outline: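 Inoculum: 5×10^5 CFU/mL. Range: 64-0.06 μg/mL. Medium: Muller-Hinton II […]; NCCLS M7-A2 broth dilution. Endpoint: lowest concentration inhibiting growth. Strains include methicillin-, penicillin- and/or vancomycin-resistant clinical isolates.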

Enterococcus sp. = tested on: Enterococcus sp.
Outline: as §1

[1] = broth dilution, 18 hours at 35° C.
[2] = broth dilution, 5×10^5 CFU/mL, 18 hours at 35° C.

CCCCCCCN1CC(C(O)C2NC(=O)C(C(O)C3CNC(=N)N3)NC(=O)C(Cc3ccc(OC4OC(CO)C(OC5OC6COC7(OC6C(O)C5O)C5CC6CC(C5)CC7C6)C(O)C4O)cc3)NC(=O)C(C(C)c3ccccc3)NC(=O)CNC(=O)C(CO)NC2=O)N(C2OC(CO)C(O)C(O)C2O)C1=N (stereo not drawn) [Example 83, Cyclo[glycyl-β-methylphenylalanyl-O-[4-O-[4,6-O-(2-adamantylidene)hexopyranosyl]hexopyranosyl]tyrosyl-3-(2-iminoimidazolidin-4-yl)seryl-3-[1-heptyl-3-hexopyranosyl-2-iminoimidazolidin-4-yl]serylseryl]]
0.5 µg/mL: MIC Streptococcus pneumoniae (ATCC 6301) (Streptococcus sp.; Streptococcus pneumoniae (ATCC 6301), broth dilution, 18 hours at 35° C.) | MIC Streptococcus pneumoniae (ATCC 6301) (Streptococcus sp.; strain ATCC 6301)
2 µg/mL: MIC Staphylococcus aureus (ATCC 29213) (Staphylococcus sp.; [1]) | MIC Staphylococcus aureus (GC 4541) (Staphylococcus sp.; [1]) | MIC Staphylococcus aureus (GC 4545) (Staphylococcus sp.; [1]) | MIC Staphylococcus aureus-SMITH (GC 4543) (Staphylococcus sp.; strain SMITH GC 4543, broth dilution, 18 hours at 35° C.) | MIC Escherichia coli (GC 4560) (Escherichia coli; strain GC 4560) | MIC Enterococcus faecium (GC 2243) (Enterococcus sp.; strain GC 2243) | MIC Enterococcus faecalis (GC 4553) (Enterococcus sp.; strain GC 4553) | MIC Enterococcus avium (GC 4558) (Enterococcus sp.; strain GC 4558)
0.25 µg/mL: MIC Streptococcus agalactiae (GC 4564) (Streptococcus sp.; Streptococcus agalactiae (GC 4564), broth dilution, 18 hours at 35° C.) | MIC Streptococcus pneumoniae (GC 4565) (Streptococcus sp.; Streptococcus pneumoniae (GC 4565), broth dilution, 18 hours at 35° C.) | MIC Streptococcus pyogenes (GC 4563) (Streptococcus sp.; Streptococcus pyogenes (GC 4563), broth dilution, 18 hours at 35° C.) | MIC Streptococcus pyogenes (GC 4563) (Streptococcus sp.; strain GC 4563) | MIC Streptococcus agalactiae (GC 4564) (Streptococcus sp.; strain GC 4564) | MIC Streptococcus pneumoniae (GC 4565) (Streptococcus sp.; strain GC 4565)
<0.12 µg/mL: MIC Streptococcus pneumoniae (GC 1894) (Streptococcus sp.; Streptococcus pneumoniae (GC 1894), broth dilution, 18 hours at 35° C.) | MIC Streptococcus pneumoniae (GC 1894) (Streptococcus sp.; strain GC 1894)
64 µg/mL: MIC Escherichia coli (ATCC 25922) (Escherichia coli; strain ATCC 25922)
1 µg/mL: MIC Enterococcus faecium (GC 4557) (Enterococcus sp.; strain GC 4557)
32 µg/mL: MIC Escherichia coli (GC 4559) (Escherichia coli; strain GC 4559)
4 µg/mL: MIC Staphylococcus aureus (GC 1131) (Staphylococcus sp.; [1]) | MIC Staphylococcus aureus (GC 3051) (Staphylococcus sp.; [1]) | MIC Staphylococcus aureus (GC 3053) (Staphylococcus sp.; [1]) | MIC Staphylococcus aureus (GC 4542) (Staphylococcus sp.; [1]) | MIC Staphylococcus aureus (GC 4544) (Staphylococcus sp.; [1]) | MIC Enterococcus faecalis (GC 2242) (Enterococcus sp.; Enterococcus faecalis (GC 2242), broth dilution, 18 hours at 35° C.) | MIC Enterococcus faecalis (GC 2691) (Enterococcus sp.; Enterococcus faecalis (GC 2691), broth dilution, 18 hours at 35° C.) | MIC Enterococcus faecalis (GC 3059) (Enterococcus sp.; Enterococcus faecalis (GC 3059), broth dilution, 18 hours at 35° C.) | MIC Enterococcus faecalis (ATCC 29212) (Enterococcus sp.; strain ATCC 29212) | MIC Enterococcus faecalis (GC 2242) (Enterococcus sp.; strain GC 2242) | MIC Enterococcus faecalis (GC 2691) (Enterococcus sp.; strain GC 2691) | MIC Enterococcus faecalis (GC 3059) (Enterococcus sp.; strain GC 3059) | MIC Enterococcus faecalis (GC 4552) (Enterococcus sp.; strain GC 4552) | MIC Enterococcus faecalis (GC 4554) (Enterococcus sp.; strain GC 4554) | MIC Enterococcus faecium (GC 4556) (Enterococcus sp.; strain GC 4556) | MIC Enterococcus faecalis (GC 6189) (Enterococcus sp.; strain GC 6189)

CC(c1ccccc1)C1NC(=O)CNC(=O)C(CO)NC(=O)C(C(O)C2CNC(=N)N2C2OC(CO)C(O)C(O)C2O)NC(=O)C(C(O)C2CNC(=N)N2)NC(=O)C(Cc2ccc(OC3OC(COC(=O)OCc4ccccc4)C(OC4OC(CO)C(O)C(O)C4O)C(O)C3O)cc2)NC1=O (stereo not drawn) [Example 101, Cyclo[glycyl-β-methylphenylalanyl-O-[4-O-hexopyranosyl-6-O-[(phenylmethoxy)carbonyl]-hexopyranosyl]tyrosyl-3-(2-iminoimidazolidin-4-yl)seryl-3-(3-hexopyranosyl-2-iminoimidazolidin-4-1/1)serylseryl]]
4 µg/mL: MIC Staphylococcus aureus (ATCC 29213) (Staphylococcus sp.; strain ATCC 29213) | MIC Staphylococcus aureus (GC 1131) (Staphylococcus sp.; strain GC 1131) | MIC Staphylococcus aureus (GC 4541) (Staphylococcus sp.; strain GC 4541) | MIC Staphylococcus aureus-SMITH (GC 4543) (Staphylococcus sp.; strain GC 4543, 18 hours at 35° C.) | MIC Staphylococcus aureus-SMITH (GC 4543) (Staphylococcus sp.; strain GC 4543, broth dilution, 18 hours at 35° C.) | MIC Staphylococcus aureus (GC 4545) (Staphylococcus sp.; strain GC 4545) | MIC Staphylococcus haemolyticus (GC 4546) (Staphylococcus sp.) | MIC Staphylococcus haemolyticus (GC 4546) (Staphylococcus sp.; [1])
2 µg/mL: MIC Coagulase Negative Staphylococcus (GC 4547) (Staphylococcus sp.) | MIC Coagulase Negative Staphylococcus (GC 4547) (Staphylococcus sp.; [1]) | MIC Coagulase Negative Staphylococcus (GC 4548) (Staphylococcus sp.) | MIC Coagulase Negative Staphylococcus (GC 4548) (Staphylococcus sp.; [1]) | MIC Streptococcus agalactiae (GC 4564) (Streptococcus sp.; [2]) | MIC Streptococcus pyogenes (ID-3187) (Streptococcus sp.; [2]) | MIC Enterococccus faecium (GC 4557) (Enterococcus sp.; [2])
1 µg/mL: MIC Coagulase Negative Staphylococcus (GC 4549) (Staphylococcus sp.) | MIC Coagulase Negative Staphylococcus (GC 4549) (Staphylococcus sp.; [1]) | MIC Coagulase Negative Staphylococcus (ID-3941) (Staphylococcus sp.) | MIC Coagulase Negative Staphylococcus (ID-3941) (Staphylococcus sp.; [1])
<0.5 µg/mL: MIC Streptococcus pneumoniae (GC 4565) (Streptococcus sp.; [2])
>64 µg/mL: MIC Escherichia coli (ATCC 25922) (Escherichia coli; 5×10^5 CFU/mL, 18 hours at 35° C.)
8 µg/mL: MIC Staphylococcus aureus (GC 4542) (Staphylococcus sp.; strain GC 4542) | MIC Staphylococcus aureus (GC 4544) (Staphylococcus sp.; strain GC 4544) | MIC Coagulase Negative Staphylococcus (GC 4551) (Staphylococcus sp.) | MIC Coagulase Negative Staphylococcus (GC 4551) (Staphylococcus sp.; [1])
32 µg/mL: MIC Enterococccus avium (GC 4558) (Enterococcus sp.; [2]) | MIC Enterococccus faecalis (ATCC 29212) (Enterococcus sp.; [2]) | MIC Enterococccus faecalis (GC 4553) (Enterococcus sp.; [2]) | MIC Enterococccus faecium (GC 2243) (Enterococcus sp.; [2]) | MIC Enterococccus faecium (GC 4556) (Enterococcus sp.; [2])
64 µg/mL: MIC Enterococccus faecalis (GC 4552) (Enterococcus sp.; [2]) | MIC Enterococccus faecalis (GC 4554) (Enterococcus sp.; [2])
16 µg/mL: MIC Enterococcus faecalis (GC 2242) (Enterococcus sp.; [2])
